Measured values from PMC6332220, “Synthesis, Characterization and Biological Evaluation of Some Quinoxaline Derivatives: A Promising and Potent New Class of Antitumor and Antimicrobial Agents” (Molecules, 2015).
Converted amounts (≈) assume the structure as drawn.

Columns and labels:
[1] = system: WI 38 (normal fibroblast cells); test: In vitro cytotoxicity, SRB cell growth assay, normal cells WI 38; format: cell-based, human; settings: 48 h exposure, non-cytotoxic = IC50 >100 μg/mL; for IC50: Homo sapiens, WI-38, 48 h
Method: (§1) The in vitro cytotoxic activity of the newly synthesized compounds against human breast cell line (MCF7), non-small cell lung cancer NCIH460, CNS cancer SF-268 and WI 38 (normal fibroblast cells) were evaluated using doxorubicin as the reference drug according to the method reported by Skehan et al..
(§2) The newly synthesized compounds were evaluated in vitro against three human cancer cell lines; which are MCF-7 (breast adenocarcinoma), NCI-H460 (non-small cell lung cancer) and SF-268 (CNS cancer), and WI 38 (normal fibroblast cells) were used in this study. MCF-7 was obtained from the European Collection of Cell Cultures (ECACC, Salisbury, UK) but NCI-H460, SF-268 and WI 38 were kindly provided by the National Cancer Institute (NCI, Cairo, Egypt). They grow as monolayer and routinely maintained RPMI-1640 medium supplemented with 5% heat inactivated fetal bovine serum (FBS), 2 mM glutamine and antibiotics (penicillin 100 U/mL, streptomycin 100 µg/mL), at 37 °C in a humidified atmosphere containing 5% CO2. Exponentially growing cells were obtained by plating 1.5 × 10^5 cells/mL for MCF-7 and SF-268, and 0.75 × 10^4 cells/mL for NCI-H460 followed by 24 h of incubation. The effect of the vehicle solvent (DMSO) on the growth of these cell lines was evaluated in all experiments by exposing untreated control cells to the maximum concentration (0.5%) of DMSO used in each assay.
(§3) The effect of compounds on the in vitro growth of human tumor cell lines were evaluated according to the procedure adopted by the National Cancer Institute ([…]) in the “In vitro Anticancer Drug Discovery Screen” that uses the protein-binding dye sulforhodamine B (SRB) to assess cell growth. In the assay protocol, all cells were incubated at 37 °C under humidified atmosphere containing 5% CO2. Briefly, exponentially cells growing in 96-well plates were then exposed for 48 h to five serial concentrations of each compound, starting from a maximum concentration of 150 μg/mL. Following this exposure period adherent cells were fixed, washed and stained. The bound stain was solubilized and the absorbance was measured at 492 nm in a plate reader (Bio-Tek Instruments Inc., Power wave XS, Winston, NC, USA). For each test compound and cell line, a dose response curve was obtained and the inhibitory concentration of 50% (IC50), corresponding to the concentration of the compounds that inhibited 50% of the net cell growth was calculated as described elsewhere. Doxorubicin was used as a positive control and tested in the same manner.

Staphylococcus aureus = test: Disk diffusion, Staphylococcus aureus; format: cell-based; settings: Gram positive, 8.0 mm disks, 10 μL
Method: (§4) The disk diffusion method was used for determination of the antimicrobial activity using ampicillin, gentamicin and amphotericin B as reference drugs. The results were recorded for each compounds as the average diameter as inhibition zones (IZ) of bacterial or fungal growth around the discs in mm as shown in Table 2.
(§5) Antimicrobial activities were carried out against highly pathogenic strains; three strains of Gram positive bacteria (Bacillus subtilis, Staphylococcus aureus and Streptococcus faecalis), four strains of Gram negative bacteria (Escherichia coli, Neisseria gonorrhoeae, Pseudomonas aeruginosa and Salmonella typhimurium) and three fungi strains (Aspergillus flavus, Aspergillus fumigatus and Candida albicans) isolated from primary agar plates. Antimicrobial activity of the tested samples was determined using a modified Kriby-Bauer disk diffusion method. Briefly, 100 µL of the test bacteria/fungi were grown in 10 mL of fresh media until they reached a count approximately 10^8 cells/mL for bacteria or 10^5 cells/mL for fungi. 100 µL of microbial suspension was spread onto agar plates corresponding to the broth in which they were maintained. The inoculated plates of bacterial strains were incubated at 35–37 °C for 24–48 h, while the inoculated plates of fungal strains such as A. flavus and A. fumigatus were incubated at 25 °C for 48 h and yeast as C. albicans was incubated at 30 °C for 24–48 h.
(§6) The agar disk diffusion (qualitative) method was used in this investigation for determination of the preliminary antibacterial and antifungal activities. The agar used was Mueller-Hinton agar plates that are rigorously tested for composition and pH. Further the depth of the agar in the plate is a factor to be considered in the disk diffusion method.
(§7) Reference drugs: ampicillin was used as a standard antibacterial drug for Gram positive bacteria, gentamicin as a standard antibacterial drug for Gram negative bacteria and amphotericin B as antifungal standard drug.
(§8) Bacterial and fungal strains were spread onto the surface of the agar plates using sterile cotton swabs. For evaluation of antibacterial activities, blank paper disks (Schleicher & Schuell, Alicante, Spain) with a diameter of 8.0 mm were saturated with 10 μL of tested concentration of the stock solutions. Disks were dried and then placed onto inoculated agar plates. The plates of bacterial strains were reincubated at 35–37 °C for 24–48 h, while the plates of fungal strains such as A. flavus and A. fumigatus were reincubated at 25 °C for 48 h and yeast as C. albicans was reincubated at 30 °C for 24–48 h as mentioned above. […] For an accurate analysis, tests were run in triplicate for each strain to avoid any error as described in Table 2.

Pseudomonas aeruginosa = test: Disk diffusion, Pseudomonas aeruginosa; format: cell-based; settings: Gram negative, 8.0 mm disks, 10 μL
Method: as §4, §5, §6, §7, §8

Bacillus subtilis = test: Disk diffusion, Bacillus subtilis; format: cell-based; settings: Gram positive, 8.0 mm disks, 10 μL
Method: as §4, §5, §6, §7, §8

SF-268 (CNS cancer) = test: In vitro cytotoxicity, SRB cell growth assay, SF-268; settings: Homo sapiens, SF-268, 48 h, read-out: IC50 (μg/mL) SF-268
Method: as §1, §2, §3

Neisseria gonorrhoeae = test: Disk diffusion, Neisseria gonorrhoeae; format: cell-based; settings: Gram negative, 8.0 mm disks, 10 μL
Method: as §4, §5, §6, §7, §8

Aspergillus flavus = test: Disk diffusion, Aspergillus flavus; format: cell-based; settings: Fungi, 8.0 mm disks, 10 μL
Method: as §4, §5, §6, §7, §8
(§9) Disk diffusion method for filamentous fungi testing by using approved standard method (M02-A11) developed by the CLSI for evaluating the susceptibilities of filamentous fungi to antifungal agents. Disk diffusion method for yeasts developed by using approved standard method (M44-A2) by the CLSI [44]. Agar-based methods such as disk diffusion can be good alternatives because they are simpler and faster than broth-based methods.

Salmonella typhimurium = test: Disk diffusion, Salmonella typhimurium; format: cell-based; settings: Gram negative, 8.0 mm disks, 10 μL
Method: as §4, §5, §6, §7, §8

Streptococcus faecalis = test: Disk diffusion, Streptococcus faecalis; format: cell-based; settings: Gram positive, 8.0 mm disks, 10 μL
Method: as §4, §5, §6, §7, §8

Aspergillus fumigatus = test: Disk diffusion, Aspergillus fumigatus; format: cell-based; settings: Fungi, 8.0 mm disks, 10 μL
Method: as §4, §5, §6, §7, §8, §9

Candida albicans = test: Disk diffusion, Candida albicans; format: cell-based; settings: Fungi, 8.0 mm disks, 10 μL
Method: as §4, §5, §6, §7, §8, §9

[2] = system: MCF-7 (breast adenocarcinoma); test: In vitro cytotoxicity, SRB cell growth assay, MCF-7; settings: Homo sapiens, MCF7, 48 h, read-out: IC50 (μg/mL) MCF-7
Method: as §1, §2, §3

Escherichia coli = test: Disk diffusion, Escherichia coli; format: cell-based; settings: Gram negative, 8.0 mm disks, 10 μL
Method: as §4, §5, §6, §7, §8

[3] = system: NCI-H460 (non-small cell lung cancer); test: In vitro cytotoxicity, SRB cell growth assay, NCI-H460; settings: Homo sapiens, NCI-H460, 48 h, read-out: IC50 (μg/mL) NCI-H460
Method: as §1, §2, §3

melting point | Structure (SMILES) | IC50 [1] | Inhibition Zone Diameter (IZ) (mm) Staphylococcus aureus (Staphylococcus aureus) | Inhibition Zone Diameter (IZ) (mm) Pseudomonas aeruginosa (Pseudomonas aeruginosa) | Inhibition Zone Diameter (IZ) (mm) Bacillus subtilis (Bacillus subtilis) | IC50 (SF-268 (CNS cancer)) | Inhibition Zone Diameter (IZ) (mm) Neisseria gonorrhoeae (Neisseria gonorrhoeae) | Inhibition Zone Diameter (IZ) (mm) Aspergillus flavus (Aspergillus flavus) | Inhibition Zone Diameter (IZ) (mm) Salmonella typhimurium (Salmonella typhimurium) | Inhibition Zone Diameter (IZ) (mm) Streptococcus faecalis (Streptococcus faecalis) | Inhibition Zone Diameter (IZ) (mm) Aspergillus fumigatus (Aspergillus fumigatus) | Inhibition Zone Diameter (IZ) (mm) Candida albicans (Candida albicans) | IC50 [2] | Inhibition Zone Diameter (IZ) (mm) Escherichia coli (Escherichia coli) | IC50 [3] | IC50 (μg/mL) WI 38 [1]
152 to 154 °C | CC1=NN(c2nc3ccc(Br)cc3nc2N2N=C(C)CC2=O)C(=O)C1 [Compound 17, 6-Bromo-2,3-bis(3-methyl-1H-pyrazol-5(4H)-one)quinoxaline] | 21.4 ± 2.02 µg/mL (≈ 53.3 µM) | 8 mm | 8 mm | 7 mm | 21.3 ± 2.12 µg/mL (≈ 53.2 µM) | 6 mm | R (R (IZ = 0 mm)) | 5 mm | 10 mm | R (R (IZ = 0 mm)) | R (R (IZ = 0 mm)) | 21.23 ± 0.14 µg/mL (≈ 52.9 µM) | 11 mm | 15.81 ± 0.1 µg/mL (≈ 39.4 µM) | 
81 to 83 °C | Cc1cc(C)n(-c2nc3cc(Br)ccc3nc2Cl)n1 [Compound 6, 6-Bromo-2-chloro-3-(3,5-dimethyl-1H-pyrazol-1-yl)quinoxaline] | 28.2 ± 0.87 µg/mL (≈ 83.7 µM) | 9 mm | 9 mm | 11 mm | 26.5 ± 2.87 µg/mL (≈ 78.5 µM) | 11 mm | R (R (IZ = 0 mm)) | 8 mm | 11 mm | R (R (IZ = 0 mm)) | R (R (IZ = 0 mm)) | 22.4 ± 10.4 µg/mL (≈ 66.4 µM) | 11 mm | 30.5 ± 10.8 µg/mL (≈ 90.3 µM) | 
 | Cc1cc(C)n(-c2nc3ccc(Br)cc3nc2-n2nc(C)cc2C)n1 [Compound 15, 6-Bromo-2,3-bis(3,5-dimethyl-1H-pyrazol-1-yl)quinoxaline] | 18.2 ± 4.03 µg/mL (≈ 45.7 µM) | 9 mm | 9 mm | 10 mm | 30.2 ± 2.04 µg/mL (≈ 76.1 µM) | 9 mm | R (R (IZ = 0 mm)) | 10 mm | 9 mm | R (R (IZ = 0 mm)) | R (R (IZ = 0 mm)) | 28.4 ± 5.8 µg/mL (≈ 71.5 µM) | 10 mm | 22.7 ± 8.12 µg/mL (≈ 57.2 µM) | 
 | C[C@@H]1[C@H](O)[C@@H](C)/C=C/C=C/C=C/C=C/C=C/C=C/C=C/[C@H](O[C@@H]2O[C@H](C)[C@@H](O)[C@H](N)[C@@H]2O)C[C@@H]2O[C@](O)(C[C@@H](O)C[C@@H](O)[C@H](O)CC[C@@H](O)C[C@@H](O)CC(=O)O[C@H]1C)C[C@H](O)[C@H]2C(=O)O [Amphotericin B, reference compound] |  |  |  |  |  |  | 17 mm |  |  | 23 mm | 19 mm |  |  |  | 
187 to 189 °C | Clc1ccc(C=NNc2nc3cc(Br)ccc3nc2Cl)cc1 [Compound 8, 6-Bromo-2-chloro-3-[2-(4-chlorobenzylidene)hydrazinyl]quinoxaline] | 10.6 ± 5.51 µg/mL (≈ 26.7 µM) | 9 mm | 9 mm | 9 mm | 35.3 ± 12.8 µg/mL (≈ 89.2 µM) | 9 mm | R (R (IZ = 0 mm)) | 7 mm | 10 mm | R (R (IZ = 0 mm)) | R (R (IZ = 0 mm)) | 42.2 ± 2.46 µg/mL (≈ 106 µM) | 11 mm | 26.6 ± 2.63 µg/mL (≈ 67.2 µM) | 
 | CC1(C)S[C@@H]2[C@H](NC(=O)[C@H](N)c3ccccc3)C(=O)N2[C@H]1C(=O)O [Ampicillin, reference compound] |  | 22 mm |  | 20 mm |  |  |  |  | 19 mm |  |  |  |  |  | 
 | COc1cccc2c1C(=O)c1c(O)c3c(c(O)c1C2=O)C[C@@](O)(C(=O)CO)C[C@@H]3O[C@H]1C[C@H](N)[C@H](O)[C@H](C)O1 [Doxorubicin, reference compound] |  |  |  |  | 0.09 ± 0.007 µg/mL (≈ 0.166 µM) |  |  |  |  |  |  | 0.04 ± 0.008 µg/mL (≈ 0.0736 µM) |  | 0.09 ± 0.008 µg/mL (≈ 0.166 µM) | non-cytotoxic
 | Cc1c[nH]nc2c3n[nH]cc(C)n-3c3cc(Br)ccc3n1-2 [Compound 12, 7-Bromo-4,11-dimethyl-2,13-dihydrobis[1,2,4]triazino[4,3-a:3',4'-c]quinoxaline] | 23 ± 8.2 µg/mL (≈ 66.5 µM) | 19 mm | 20 mm | 18 mm | 22.1 ± 2.81 µg/mL (≈ 64 µM) | R (R (IZ = 0 mm)) | R (R (IZ = 0 mm)) | 18 mm | 18 mm | R (R (IZ = 0 mm)) | R (R (IZ = 0 mm)) | 35.2 ± 4.18 µg/mL (≈ 102 µM) | 17 mm | 34 ± 6.05 µg/mL (≈ 98.6 µM) | 
 | CNC(C)C1CCC(N)C(OC2C(N)CC(N)C(OC3OCC(C)(O)C(NC)C3O)C2O)O1 (stereo not drawn) [Gentamicin, reference compound] |  |  | 17 mm |  |  | 18 mm |  | 23 mm |  |  |  |  | 20 mm |  | 
